Read-outs that look alike come from different tables or passages of the source.
Columns and labels:
[1] = test system: Rat primary cortical neuron cultures; assay type: cell-based; conditions: for Significance of neuroprotection vs 1 uM LPS: 24 h LPS
[2] = test system: pulmonary LPS-stimulated rats; assay: Cytokine expression in BALF supernatant (multiplex immunoassay), LPS acute pulmonary inflammation; assay type: in vivo, rat; conditions: any dose, p<0.05 vs LPS-only animals
[3] = test system: THP1-differentiated macrophages; assay type: cell-based, human; set-up: key to Significant reduction in IL-6 / Significant reduction in TNF-α / Significant reduction in IL-1β: NS: indicates a non-significant reduction in the indicated cytokine; +: indicates a p value<0.05 in Tukey post test; ++: indicates a p value<0.01 in Tukey post test; conditions: for Significant reduction in IL-1β / Significant reduction in IL-6 / Significant reduction in TNF-α: 24 hrs LPS
[4] = test system: LPS-induced cognitive deficit in CD-1 mice; assay: Rodent LPS model of brain inflammation, T-maze spontaneous alternation; assay type: in vivo, mouse; conditions: for Recovery (%) / Spontaneous alternation (%) Mean: LPS 250 μg/kg
Rat hippocampal neurons [5] = assay: Synaptogenesis assay; assay type: cell-based; conditions: for Significant increase in: Synapses: Table 4 study
[6] = test system: bleomycin-induced pulmonary fibrosis in C57BL/6 mice; assay: Bleomycin-induced pulmonary fibrosis; assay type: in vivo, mouse; conditions: for TGF-Beta, improvement versus disease control / Collagen, improvement versus disease control / Hydroxyproline, improvement versus disease control: right lung homogenate
[7] = test system: chemically-induced spatial memory deficits in rats; assay: Scopolamine-induced spatial memory deficit, Morris water maze (2 mg/kg scopolamine, 5 days); assay type: in vivo, rat
Method: Exemplary compound 1a was evaluated for its ability to reverse chemically-induced spatial memory deficits in rats in the Morris water maze. The water maze consists of a large round tank (diameter 1.5 m) filled with 23-26° C. water to a depth of ˜30 cm and the water was clouded with white paint. A round platform was fixed such that it rested 2-3 cm below the surface of the water. High-contrast visual cues were placed around the tank to aid spatial orientation of test animals. Testing consisted of placing an animal into the water facing the tank wall at one of three randomly assigned starting locations and allowing the animal to swim and search for the hidden platform for up to 90 seconds. The time taken for the animal to locate the platform was recorded as the escape latency. Animals were tested 5 times per day with a 30 second rest period between trials. Testing was completed for a total of 5 consecutive days.
Animals were divided into groups (N=12 per group) depending on treatment. Control animals received only empty vehicle. Scopolamine groups received 2 mg/kg scopolamine dissolved in sterile saline by intraperitoneal (IP) injection 30 minutes prior to testing. Test compound groups received test compound at various concentrations by oral gavage (PO) dissolved in 78% sterile saline, 20% polyethylene glycol (PEG-400), and 2% DMSO 40 minutes prior to testing. Escape latencies were recorded for each animal for 5 trials each day for 5 consecutive days. Changes in escape latency curves were statistically analyzed by 2-way ANOVA with Bonferoni post-test.

Rat hippocampal neurons [8] = assay: Neurite outgrowth assay; assay type: cell-based; conditions: for Significant increase in: Neurite length: Table 4 study
[9] = test system: pulmonary LPS-stimulated rats; assay: Immune cell infiltration in BALF, LPS acute pulmonary inflammation; assay type: in vivo, rat
[10] = test system: patient in need of treatment for long COVID; assay: Treating long COVID (Example 1), clinical screening assessments; assay type: in vivo, human; conditions: patients with long COVID
Method: A Compound of Formula (I), such as Compound 2a or Compound 1a, or a pharmaceutically acceptable salt thereof, is administered orally to a patient in need of treatment for long COVID.
In some embodiments, a patient in need of treatment for long COVID is assessed with ADCS-ADL23. The ADCS-ADL23 (Galasko, 1997) is a 23-item assessment of functional impairment in terms of activities of daily living administered to the support person/caregiver. It comprises 23 questions about the subject's involvement and level of performance across items representing daily living. The questions range from basic to instrumental activities of daily living. Each item is rated from the highest level of independent performance to complete loss. The total score range is from 0 to 78, with lower scores indicating greater functional impairment.
A patient in need of treatment for long COVID is assessed with ERP P300. ERP P300 is a quantitative, unbiased, non-invasive method of recording task-related brain processing speed, elicited by external stimuli, e.g., an oddball auditory stimulus, and is a well-established functional biomarker, particularly of working memory access (Ally, 2006). ERP P300 is characterized by a stereotyped series of voltage deflections occurring after the respective odd tone to be counted, with early features (<100 msec) corresponding to unconscious sensory transmission (auditory cortex, N100), and later features produced by cognitive processing in the ventral attentional network, i.e., P300, referring to the large positive deflection at roughly 300 msec in healthy adults (young or elderly). The P300 latency is sensitive to detecting reduced synaptic transmission related to cognitive decline in AD patients and other dementias (Olichney, 2011).

CCC(C)CN1CC2N(C(=O)c3ccc(C(F)(F)F)cc3)CCC(=O)N2[C@@H](C)C1=O (stereo partly drawn) [Compound 1a]
Significance of neuroprotection vs 1 uM LPS ([1]; 0.1 nM): +++ (+++ indicates p<0.001) | Significance of neuroprotection vs 1 uM LPS ([1]; 1 nM): +++ (+++ indicates p<0.001) | Significance of neuroprotection vs 1 uM LPS ([1]; 10 nM): +++ (+++ indicates p<0.001) | Significance of neuroprotection vs 1 uM LPS ([1]; 100 nM): +++ (+++ indicates p<0.001) | Significance of neuroprotection vs 1 uM LPS ([1]; 1 μM): +++ (+++ indicates p<0.001) | protection of primary neurons from LPS-stimulated inflammatory toxicity ([1]; at at least one dose tested): protected primary neurons from LPS-stimulated inflammatory toxicity | cytokines with significant changes in expression in BALF supernatant (list) [2]: G-CSF, CXCL2, CXCL10, IFN-γ, and IL-1β | Significant reduction in IL-1β ([3]; 0.1 nM): ++ (indicates a p value<0.01 in Tukey post test) | Significant reduction in IL-6 ([3]; 0.1 nM): NS | Significant reduction in TNF-α ([3]; 0.1 nM): ++ (indicates a p value<0.01 in Tukey post test) | Significant reduction in IL-1β ([3]; 10 nM): ++ (indicates a p value<0.01 in Tukey post test) | Significant reduction in IL-6 ([3]; 10 nM): ++ (indicates a p value<0.01 in Tukey post test) | Significant reduction in TNF-α ([3]; 10 nM): ++ (indicates a p value<0.01 in Tukey post test) | Significant reduction in IL-1β ([3]; 1000 nM): ++ (indicates a p value<0.01 in Tukey post test) | Significant reduction in IL-6 ([3]; 1000 nM): + (indicates a p value<0.05 in Tukey post test) | Significant reduction in TNF-α ([3]; 1000 nM): ++ (indicates a p value<0.01 in Tukey post test) | expression of IL-1β (in words) ([3]; at at least one tested dose): significantly reduced the expression of IL-1β and TNF-α | expression of IL-6 (in words) ([3]; at at least one tested dose): significantly reduced the expression of IL-6 | expression of TNF-α (in words) ([3]; at at least one tested dose): significantly reduced the expression of IL-1β and TNF-α | Recovery (%) ([4]; 0.5 mg/kg p.o. 14 days): 17% | Spontaneous alternation (%) Mean ([4]; 0.5 mg/kg p.o. 14 days): 49% | Spontaneous alternation (%) Mean ([4]; 0.5 mg/kg p.o. 14 days, listed as Cmpd la): 48.6% | Recovery (%) ([4]; 2 mg/kg p.o. 14 days): 56% | Spontaneous alternation (%) Mean ([4]; 2 mg/kg p.o. 14 days): 59% | Spontaneous alternation (%) Mean ([4]; 2 mg/kg p.o. 14 days, listed as Cmpd la): 58.6% | Recovery (%) ([4]; 8 mg/kg p.o. 14 days): 47% | Spontaneous alternation (%) Mean ([4]; 8 mg/kg p.o. 14 days): 56% | Spontaneous alternation (%) Mean ([4]; 8 mg/kg p.o. 14 days, listed as Cmpd la): 56.4% | Recovery (%) ([4]; 16 mg/kg p.o. 14 days): 28% | Spontaneous alternation (%) Mean ([4]; 16 mg/kg p.o. 14 days): 51% | Spontaneous alternation (%) Mean ([4]; 16 mg/kg p.o. 14 days, listed as Cmpd la): 51.4% | Recovery (%) ([4]; 32 mg/kg p.o. 14 days): 44% | Spontaneous alternation (%) Mean ([4]; 32 mg/kg p.o. 14 days): 56% | Spontaneous alternation (%) Mean ([4]; 32 mg/kg p.o. 14 days, listed as Cmpd la): 55.7% | significance of reversal of LPS-induced cognitive deficit (in words) ([4]; T-maze): significant reversal of LPS-induced cognitive deficits at 2 mg/kg | synapse counts (in words) (Rat hippocampal neurons [5]): increase both measures at all doses tested | Significant increase in: Synapses (Rat hippocampal neurons [5]; 1 nM): ++++ (++++ = p < 0.0001) | Significant increase in: Synapses (Rat hippocampal neurons [5]; 10 nM): ++++ (++++ = p < 0.0001) | Significant increase in: Synapses (Rat hippocampal neurons [5]; 100 nM): ++++ (++++ = p < 0.0001) | TGF-Beta, improvement versus disease control ([6]; 0.2 mg/kg po QD): +++ (+++ => 51-100% improvement v disease control) | weight loss compared to the other treatment groups ([6]; 0.8 mg/kg): slightly greater weight loss | Right Lung Weight, improvement versus disease control ([6]; 0.8 mg/kg po QD, day 21): + (+ => 5-25% improvement v disease control) | Collagen, improvement versus disease control ([6]; 0.8 mg/kg po QD): + (+ => 5-25% improvement v disease control) | TGF-Beta, improvement versus disease control ([6]; 0.8 mg/kg po QD): +++ (+++ => 51-100% improvement v disease control) | collagen in right lung homogenate versus pirfenidone (in words) ([6]; 2 mg/kg): about the same levels of collagen | Right Lung Weight, improvement versus disease control ([6]; 2 mg/kg po QD, day 21): + (+ => 5-25% improvement v disease control) | Collagen, improvement versus disease control ([6]; 2 mg/kg po QD): ++ (++ => 26-50% improvement v disease control) | Hydroxyproline, improvement versus disease control ([6]; 2 mg/kg po QD): ++ (++ => 26-50% improvement v disease control) | TGF-Beta, improvement versus disease control ([6]; 2 mg/kg po QD): +++ (+++ => 51-100% improvement v disease control) | collagen concentration in right lung homogenates (in words) ([6]; 8 mg/kg): reduced compared to the pirfenidone positive control | hydroxyproline concentration in right lung homogenates (in words) ([6]; 8 mg/kg and 2 mg/kg): lower concentrations of hydroxyproline | Right Lung Weight, improvement versus disease control ([6]; 8 mg/kg po QD, day 21): ++ (++ => 26-50% improvement v disease control) | Hydroxyproline, improvement versus disease control ([6]; 8 mg/kg po QD): + (+ => 5-25% improvement v disease control) | TGF-Beta, improvement versus disease control ([6]; 8 mg/kg po QD): + (+ => 5-25% improvement v disease control) | protection against bleomycin-induced increases in TGF-β (in words) ([6]; all doses, day 21): significantly protected against bleomycin-induced increases in TGF-β | protection against body weight loss (in words) ([6]; all treatment groups): did not protect against body weight loss | activity in treating pulmonary fibrosis in the model ([6]; mouse, in vivo): active in treating pulmonary fibrosis | Cognitive Improvement ([7]; 0.5 mg/kg PO): + (+ indicates post-test p-value between 0.06 and 0.05) | Cognitive Improvement ([7]; 2 mg/kg PO): − (− indicates post-test p-value above 0.06) | Cognitive Improvement ([7]; 8 mg/kg PO): − (− indicates post-test p-value above 0.06) | neurite length / extension of neurites (in words) (Rat hippocampal neurons [8]): increase both measures at all doses tested | Significant increase in: Neurite length (Rat hippocampal neurons [8]; 1 nM): ++++ (++++ = p < 0.0001) | Significant increase in: Neurite length (Rat hippocampal neurons [8]; 10 nM): ++++ (++++ = p < 0.0001) | Significant increase in: Neurite length (Rat hippocampal neurons [8]; 100 nM): + (+ = p < 0.05) | Neutrophils in BALF, reduction vs disease control ([9]; 0.0075 mg/kg IV): ++ (++ = >25% reduction in cell count vs disease control) | Total Leukocytes in BALF, reduction vs disease control ([9]; 0.0075 mg/kg IV): ++ (++ = >25% reduction in cell count vs disease control) | Neutrophils in BALF, reduction vs disease control ([9]; 0.075 mg/kg IV): + (+ = >5% reduction in cell count vs disease control) | Total Leukocytes in BALF, reduction vs disease control ([9]; 0.075 mg/kg IV): + (+ = >5% reduction in cell count vs disease control) | neutrophil counts compared to LPS-only controls (in words) ([9]; rat, in vivo): reduced both total leukocyte counts and neutrophil counts | total leukocyte counts compared to LPS-only controls (in words) ([9]; rat, in vivo): reduced both total leukocyte counts and neutrophil counts | patient outcome as measured by one or more of the screening assessments [10]: reduces the rate of decline, stabilizes, or improves patient outcome | safety and tolerability [10]: acceptable safety and tolerability

— patent US20250161308A1, “Methods of Treating Covid-Related Disorders” (priority 2022, published 2025)
